Measurements: ChEMBL document CHEMBL1201862, “PubChem BioAssay data set” (2004)
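The compound was tested at five concentrations on cells cultured in 96-well plates, with a 48-hour exposure period. GI50: concentration for 50% inhibition of growth.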 Activity calls are given as the source filed them. Rule as the data show it: active = GI50 up to about 1.1 µM and inactive = higher.

Assays:
Test in all cases: DTP human tumour cell line panel, 48 h
OVCAR-8 = test system: OVCAR-8
CAKI-1 = test system: CAKI-1
A498 = test system: A498
Malme-3M = test system: Malme-3M
HOP-62 = test system: HOP-62
NCI/ADR-RES = test system: NCI/ADR-RES
SNB-75 = test system: SNB-75
PC-3 = test system: PC-3
ACHN = test system: ACHN
SK-MEL-28 = test system: SK-MEL-28
A549 = test system: A549
SF-268 = test system: SF-268
SNB-19 = test system: SNB-19
HCT-116 = test system: HCT-116
UO-31 = test system: UO-31
M14 = test system: M14
HOP-92 = test system: HOP-92
SN12C = test system: SN12C
SR = test system: SR
LOX IMVI = test system: LOX IMVI

Measured: GI50

Cc1n[nH]c(=O)n1/N=C/c1c[nH]c2ccccc12
inactive: OVCAR-8 > 100 µM | CAKI-1 > 100 µM | A498 > 100 µM | Malme-3M > 100 µM | HOP-62 > 100 µM | NCI/ADR-RES > 100 µM | SNB-75 32.9 µM | PC-3 > 100 µM | ACHN > 100 µM | SK-MEL-28 > 100 µM | A549 > 100 µM | SF-268 > 100 µM | SNB-19 > 100 µM | HCT-116 > 100 µM | UO-31 > 100 µM | M14 > 100 µM | HOP-92 > 100 µM | SN12C > 100 µM | SR > 100 µM

CCCCC(C)(C/C=C/[C@@H]1[C@@H](C(O)CCCCCC(=O)OC)C(=O)C[C@H]1O[Si](C)(C)C(C)(C)C)O[Si](C)(C)C (stereo partly drawn)
inactive: OVCAR-8 > 100 µM | LOX IMVI 45.3 µM | CAKI-1 38.4 µM | Malme-3M > 100 µM | HOP-62 > 100 µM | NCI/ADR-RES > 100 µM | SNB-75 56.2 µM | PC-3 34.9 µM | ACHN 86.5 µM | SK-MEL-28 77.4 µM | A549 70.8 µM | SF-268 39.1 µM | SNB-19 > 100 µM | HCT-116 81.1 µM | UO-31 33.7 µM | M14 > 100 µM | HOP-92 > 100 µM | SN12C > 100 µM | SR 25.3 µM

Cc1ccc(/N=N/C(=N/c2ccccc2)c2ccc(N(CCC#N)CCC#N)cc2)cc1
inactive: OVCAR-8 26.1 µM | CAKI-1 55.5 µM | A498 45.4 µM | HOP-62 30.1 µM | NCI/ADR-RES > 100 µM | SNB-75 31.1 µM | PC-3 17.9 µM | ACHN 46 µM | SK-MEL-28 39.8 µM | A549 26.7 µM | SF-268 40.3 µM | SNB-19 37.5 µM | HCT-116 32.9 µM | UO-31 60.3 µM | M14 33.4 µM | HOP-92 22 µM | SN12C 31.9 µM | SR 27.9 µM

C=CCC(CCC(C)=O)(C(=O)OCC)C(=O)OCC
inactive: OVCAR-8 > 100 µM | CAKI-1 > 100 µM | A498 > 100 µM | Malme-3M > 100 µM | HOP-62 > 100 µM | NCI/ADR-RES > 100 µM | SNB-75 > 100 µM | PC-3 > 100 µM | ACHN > 100 µM | SK-MEL-28 > 100 µM | A549 > 100 µM | SF-268 > 100 µM | SNB-19 > 100 µM | HCT-116 > 100 µM | UO-31 > 100 µM | M14 > 100 µM | HOP-92 > 100 µM | SN12C > 100 µM | SR > 100 µM

O=C1/C(=C/c2cccc3ccccc23)Cc2ccccc21
inactive: OVCAR-8 53.8 µM | LOX IMVI 34.4 µM | CAKI-1 25.6 µM | A498 37 µM | NCI/ADR-RES 52.2 µM | SNB-75 29.8 µM | PC-3 16.9 µM | ACHN 36.5 µM | SK-MEL-28 32.8 µM | A549 38.4 µM | SF-268 22.6 µM | SNB-19 17.9 µM | UO-31 22.1 µM | M14 59.2 µM | SN12C 49.5 µM | SR 57.3 µM

COC(=O)CCCc1ccc2c(c1)CCC2
inactive: OVCAR-8 > 100 µM | LOX IMVI > 100 µM | CAKI-1 > 100 µM | Malme-3M > 100 µM | HOP-62 > 100 µM | NCI/ADR-RES > 100 µM | SNB-75 > 100 µM | PC-3 > 100 µM | ACHN > 100 µM | SK-MEL-28 > 100 µM | A549 > 100 µM | SF-268 > 100 µM | SNB-19 > 100 µM | HCT-116 > 100 µM | UO-31 > 100 µM | M14 > 100 µM | HOP-92 > 100 µM | SN12C > 100 µM | SR > 100 µM

COc1ccc2c(c1)CC[C@@H]1[C@@H]2CC[C@]2(C)C(=O)/C(=C/c3ccc(C#N)cc3)C[C@@H]12
inactive: OVCAR-8 > 100 µM | LOX IMVI > 100 µM | CAKI-1 > 100 µM | A498 > 100 µM | Malme-3M > 100 µM | HOP-62 97.1 µM | NCI/ADR-RES > 100 µM | SNB-75 > 100 µM | PC-3 > 100 µM | ACHN > 100 µM | SK-MEL-28 > 100 µM | A549 > 100 µM | SF-268 > 100 µM | SNB-19 > 100 µM | HCT-116 > 100 µM | UO-31 > 100 µM | M14 > 100 µM | SN12C > 100 µM | SR > 100 µM

O=C1/C(=C/c2cccc([N+](=O)[O-])c2)Cc2ccccc21
inactive: OVCAR-8 > 100 µM | LOX IMVI > 100 µM | CAKI-1 > 100 µM | Malme-3M > 100 µM | HOP-62 > 100 µM | NCI/ADR-RES > 100 µM | SNB-75 > 100 µM | PC-3 > 100 µM | ACHN > 100 µM | SK-MEL-28 > 100 µM | A549 91.6 µM | SF-268 > 100 µM | SNB-19 > 100 µM | HCT-116 39.7 µM | UO-31 94.8 µM | M14 > 100 µM | HOP-92 75.3 µM | SN12C > 100 µM | SR 36.8 µM

CC(C)(C)c1cc([N+](=O)[O-])cc([N+](=O)[O-])c1O [DINOTERB]
inactive: OVCAR-8 > 10 µM | LOX IMVI > 10 µM | CAKI-1 5.6 µM | HOP-62 > 10 µM | NCI/ADR-RES > 10 µM | SNB-75 > 10 µM | PC-3 5.52 µM | ACHN > 10 µM | SK-MEL-28 > 10 µM | A549 7.64 µM | SF-268 > 10 µM | SNB-19 > 10 µM | HCT-116 > 10 µM | UO-31 > 10 µM | M14 > 10 µM | HOP-92 2.77 µM | SN12C > 10 µM | SR > 10 µM

Cc1ccc2c(c1)CC1(Cc3ccccc3C1=O)C2=O (stereo not drawn)
inactive: OVCAR-8 > 100 µM | LOX IMVI > 100 µM | A498 > 100 µM | Malme-3M > 100 µM | HOP-62 44.4 µM | NCI/ADR-RES > 100 µM | SNB-75 > 100 µM | PC-3 > 100 µM | ACHN > 100 µM | SK-MEL-28 > 100 µM | A549 > 100 µM | SF-268 > 100 µM | SNB-19 > 100 µM | HCT-116 > 100 µM | UO-31 > 100 µM | M14 > 100 µM | HOP-92 64.3 µM | SN12C > 100 µM | SR > 100 µM

N[C@H](CCC(=O)NCP(=O)(O)O)C(=O)O
inactive: OVCAR-8 > 100 µM | A498 > 100 µM | Malme-3M > 100 µM | HOP-62 > 100 µM | NCI/ADR-RES > 100 µM | PC-3 > 100 µM | ACHN > 100 µM | SK-MEL-28 > 100 µM | A549 > 100 µM | SNB-19 > 100 µM | HCT-116 > 100 µM | UO-31 > 100 µM | SN12C > 100 µM | SR > 100 µM

CN(C)CCNC(=O)c1cccc(C(=O)Nc2ccccc2)c1[N+](=O)[O-]
inactive: OVCAR-8 > 100 µM | CAKI-1 > 100 µM | A498 > 100 µM | Malme-3M 48.5 µM | HOP-62 > 100 µM | NCI/ADR-RES > 100 µM | SNB-75 34.8 µM | PC-3 > 100 µM | ACHN > 100 µM | SK-MEL-28 > 100 µM | A549 > 100 µM | SF-268 > 100 µM | SNB-19 > 100 µM | HCT-116 > 100 µM | UO-31 > 100 µM | M14 > 100 µM | SN12C > 100 µM | SR > 100 µM

CC(C)CCC[C@@H](C)[C@H]1CC[C@H]2[C@@H]3CC=C4C[C@@H](OC(=O)c5cccc6c(=O)c7ccccc7[nH]c56)CC[C@]4(C)[C@H]3CC[C@]12C
inactive: OVCAR-8 > 75 µM | LOX IMVI > 75 µM | A498 > 75 µM | Malme-3M > 75 µM | HOP-62 34.9 µM | NCI/ADR-RES > 75 µM | SNB-75 > 75 µM | PC-3 > 75 µM | ACHN > 75 µM | SK-MEL-28 > 75 µM | A549 > 75 µM | SF-268 > 75 µM | SNB-19 > 75 µM | UO-31 > 75 µM | M14 > 75 µM | HOP-92 > 75 µM | SN12C 1.92 µM | SR > 75 µM

O=[N+]([O-])/C(C(Cl)=C(Cl)Cl)=C1/OCCS1
inactive: OVCAR-8 16.8 µM | LOX IMVI 21.4 µM | CAKI-1 29.6 µM | A498 20.3 µM | Malme-3M 17.7 µM | HOP-62 20.8 µM | NCI/ADR-RES 17.1 µM | SNB-75 13.9 µM | PC-3 35.9 µM | ACHN 20.4 µM | SK-MEL-28 31.8 µM | A549 23.3 µM | SF-268 25.5 µM | SNB-19 50.4 µM | HCT-116 18 µM | UO-31 23.1 µM | M14 46.7 µM | SN12C 23 µM | SR 30.1 µM

COc1cc(/C=C2/C[C@H]3[C@@H]4CC=C5C[C@@H](OC(C)=O)CC[C@]5(C)[C@H]4CC[C@]3(C)NC2=O)cc(OC)c1OC
inactive: OVCAR-8 27.8 µM | LOX IMVI 38.7 µM | CAKI-1 29.5 µM | Malme-3M 25.6 µM | HOP-62 26.6 µM | NCI/ADR-RES 20 µM | SNB-75 22.5 µM | PC-3 19 µM | ACHN 19.1 µM | SK-MEL-28 26.2 µM | A549 18 µM | SF-268 24 µM | SNB-19 15.9 µM | HCT-116 26.4 µM | UO-31 18.1 µM | M14 36.5 µM | HOP-92 24.6 µM | SN12C 29.6 µM | SR 47.6 µM
